{"source": "paper PMC13352219", "about": "“Analysis of glutamine synthetase target‐site mutations and their role in endowing glufosinate‐ammonium resistance” (Pest Management Science, 2026)", "key": {"[1]": {"test_system": "Amaranthus palmeri cytosolic GS1.1 E131K", "assay": "GS enzyme inhibition assay, GS1.1 E131K", "format": "biochemical", "description": "(§1) GS activity was determined spectrophotometrically following the Sigma‐Aldrich enzymatic assay protocol. The reaction couples the ATP‐dependent conversion of L‐glutamate and ammonium to L‐glutamine with pyruvate kinase (PK) and L‐lactate dehydrogenase (LDH), such that oxidation of β‐NADH to β‐NAD^+ can be monitored at 340 nm. Recombinant GS from A. palmeri was expressed in E. coli, purified by affinity chromatography, and quantified by the Bradford method using bovine serum albumin as standard. […] Reaction mixtures were equilibrated to 37°C and initiated by the addition of enzyme, and the decrease in absorbance at 340 nm was recorded for 5–10 min; only the linear portion of the curve was used for activity calculations. […] Activity was calculated using an extinction coefficient for NADH of 6.22 mM^−1 cm^−1 and expressed as units per mg protein, where one unit corresponds to the formation of 1 μmol of L‐glutamine in […] at pH 7.1 and 37 °C. […] Percent inhibition was calculated relative to untreated (positive) and no‐enzyme (negative) controls. […] Resistance factors were calculated by dividing the IC₅₀ of each mutant variant by that of wild‐type GS."}, "[2]": {"test_system": "Amaranthus palmeri cytosolic GS1.1 Y55L", "assay": "GS enzyme inhibition assay, GS1.1 Y55L", "format": "biochemical", "description": "as §1"}, "[3]": {"target": "Amaranthus palmeri cytosolic GS1.1 G245P", "assay": "GS enzyme inhibition assay, GS1.1 G245P", "format": "biochemical", "conditions": "read-out: Glufosinate‐ammonium IC50", "description": "as §1"}, "[4]": {"test_system": "Amaranthus palmeri cytosolic GS1.1 R311P", "assay": "GS enzyme inhibition assay, GS1.1 R311P", "format": "biochemical", "description": "as §1"}, "[5]": {"test_system": "Amaranthus palmeri cytosolic GS1.1 E297Q", "assay": "GS enzyme inhibition assay, GS1.1 E297Q", "format": "biochemical", "description": "as §1"}, "[6]": {"test_system": "Amaranthus palmeri cytosolic GS1.1 D56S", "assay": "GS enzyme inhibition assay, GS1.1 D56S", "format": "biochemical", "description": "as §1"}, "[7]": {"test_system": "Amaranthus palmeri cytosolic GS1.1 E131Q", "assay": "GS enzyme inhibition assay, GS1.1 E131Q", "format": "biochemical", "description": "as §1"}, "[8]": {"test_system": "Amaranthus palmeri cytosolic GS1.1 WT", "assay": "GS enzyme inhibition assay, GS1.1 WT", "format": "biochemical", "conditions": "for IC50: read-out: Glufosinate‐ammonium IC50", "description": "GS activity was determined spectrophotometrically following the Sigma‐Aldrich enzymatic assay protocol. The reaction couples the ATP‐dependent conversion of L‐glutamate and ammonium to L‐glutamine with pyruvate kinase (PK) and L‐lactate dehydrogenase (LDH), such that oxidation of β‐NADH to β‐NAD^+ can be monitored at 340 nm. Recombinant GS from A. palmeri was expressed in E. coli, purified by affinity chromatography, and quantified by the Bradford method using bovine serum albumin as standard. Assays were conducted at 37 °C in 3 mL total volume containing 34.1 mM imidazole (pH 7.1), 102 mM sodium L‐glutamate, 8.5 mM ATP, 1.1 mM phosphoenolpyruvate, 60 mM MgCl₂, 18.9 mM KCl, 45 mM NH₄Cl, 0.25 mM β‐NADH, 28 U PK, 40 U LDH, and 0.4–0.8 U recombinant GS. Reaction mixtures were equilibrated to 37°C and initiated by the addition of enzyme, and the decrease in absorbance at 340 nm was recorded for 5–10 min; only the linear portion of the curve was used for activity calculations. For inhibition assays, GFA was added directly to the reaction mixture to final concentrations ranging from 10^−8 M to 10^−2 M, using 2.5‐fold serial dilutions, with a no‐inhibitor control included in each run. Activity was calculated using an extinction coefficient for NADH of 6.22 mM^−1 cm^−1 and expressed as units per mg protein, where one unit corresponds to the formation of 1 μmol of L‐glutamine in […] at pH 7.1 and 37 °C. Background activity was corrected by including blank assays without GS. Percent inhibition was calculated relative to untreated (positive) and no‐enzyme (negative) controls. Assays were conducted in triplicates. IC₅₀ values (concentration of inhibitor reducing GS activity by 50%) were estimated by nonlinear regression (three‐ or four‐parameter log‐logistic models). Resistance factors were calculated by dividing the IC₅₀ of each mutant variant by that of wild‐type GS."}, "[9]": {"test_system": "Amaranthus palmeri cytosolic GS1.1 C159H", "assay": "GS enzyme inhibition assay, GS1.1 C159H", "format": "biochemical", "description": "as §1"}, "[10]": {"test_system": "Amaranthus palmeri cytosolic GS1.1 K177L", "assay": "GS enzyme inhibition assay, GS1.1 K177L", "format": "biochemical", "description": "as §1"}, "[11]": {"test_system": "Amaranthus palmeri cytosolic GS1.1 H249R", "assay": "GS enzyme inhibition assay, GS1.1 H249R", "format": "biochemical", "description": "as §1"}, "[12]": {"test_system": "Amaranthus palmeri cytosolic GS1.1 R291S", "assay": "GS enzyme inhibition assay, GS1.1 R291S", "format": "biochemical", "description": "as §1"}, "[13]": {"test_system": "Amaranthus palmeri GS2.2 G255D", "assay": "GS enzyme inhibition assay, GS2.2 G255D", "format": "biochemical", "conditions": "full range of GFA concentrations tested (10^−8 M to 10^−2 M), listed as GFA", "description": "as §1"}, "[14]": {"test_system": "Amaranthus palmeri cytosolic GS1.1 A163Y", "assay": "GS enzyme inhibition assay, GS1.1 A163Y", "format": "biochemical", "description": "as §1"}, "[15]": {"test_system": "Arabidopsis thaliana plants expressing Arabidopsis GS2.2 G254D", "assay": "Postemergence GFA spray on transgenic Arabidopsis expressing GS2.2 G254D", "format": "in vivo", "conditions": "transgenic Arabidopsis expressing Arabidopsis GS2.2 G254D; 100, 500 and 1000 g ha^−1 postemergence; listed as GFA", "source_text": "Mutant GS variants G2.2 G255D from A. palmeri and G254D from Arabidopsis were cloned into the RTP6557 transformation vector, which was subsequently introduced into Agrobacterium tumefaciens strain C58C1pMP90. The construct also carried an acetolactate synthase (ALS) herbicide‐resistance gene as a selectable marker, ensuring that Arabidopsis seedlings tested for resistance to GFA herbicide expressed the transgene.\nArabidopsis plants carrying immature floral buds were transformed by the floral‐dip method, immersing inflorescences for 10 s in the bacterial suspension supplemented with Silwet‐L77 at 0.05% v/v. After dipping, plants were maintained overnight under high humidity and low light, then transferred to long‐day conditions until maturity. Once siliques had yellowed, seeds were harvested into paper bags. T₁ seeds were collected, placed into Falcon tubes, and stored at 4 °C.\nAfter ≥14 d of cold storage, T₁ seeds were sown and stratified as previously described. Transgenic plants were confirmed by PCR detection of the AHAS resistance marker gene. […]\nHerbicide treatments were applied at the 10‐leaf stage using a spray chamber calibrated to deliver 375 L ha^−1 of spray solution. […] Herbicide efficacy was visually evaluated 7 d after application."}, "[16]": {"test_system": "Amaranthus palmeri cytosolic GS1.1 E192Q", "assay": "GS enzyme inhibition assay, GS1.1 E192Q", "format": "biochemical", "description": "as §1"}, "[17]": {"test_system": "Amaranthus palmeri cytosolic GS1.1 R311Q", "assay": "GS enzyme inhibition assay, GS1.1 R311Q", "format": "biochemical", "description": "as §1"}, "[18]": {"test_system": "Amaranthus palmeri cytosolic GS1.1 R34A", "assay": "GS enzyme inhibition assay, GS1.1 R34A", "format": "biochemical", "description": "as §1"}, "[19]": {"test_system": "Amaranthus palmeri cytosolic GS1.1 K165V", "assay": "GS enzyme inhibition assay, GS1.1 K165V", "format": "biochemical", "description": "as §1"}, "[20]": {"conditions": "read-out: Glufosinate‐ammonium IC50"}}, "note": "Entries after “also recorded” stand apart in the source; their conditions may differ. Like-named read-outs stand apart in the source and are kept apart here.", "data": [{"smiles": "CP(=O)(O)CCC(N)C(=O)O", "note": "(stereo not shown) [Glufosinate‐ammonium]", "values": [{"measurement": "Glufosinate‐ammonium % Inhibition at saturation 10 000 μM", "setting": "[1]; 10 000 μM", "value": 0, "unit": "%"}, {"measurement": "IC50", "setting": "[1]; [20]", "value": "> 10000", "unit": "µM"}, {"measurement": "Resistance index (RI)", "setting": "[2]; IC50 variant / IC50 WT", "value": 0.8}, {"measurement": "IC50", "setting": "[2]; [20]", "value": 17, "unit": "µM"}, {"measurement": "IC50", "setting": "[3]", "value": 247, "unit": "µM"}, {"measurement": "Glufosinate‐ammonium % Inhibition at saturation 10 000 μM", "setting": "[4]; 10 000 μM", "value": 0, "unit": "%"}, {"measurement": "IC50", "setting": "[4]; [20]", "value": "> 10000", "unit": "µM"}, {"measurement": "Resistance index (RI)", "setting": "[5]; IC50 variant / IC50 WT", "value": 0.0}, {"measurement": "IC50", "setting": "[5]; [20]", "value": 0.6, "unit": "µM"}, {"measurement": "Resistance index (RI)", "setting": "[6]; IC50 variant / IC50 WT", "value": 2.6}, {"measurement": "IC50", "setting": "[6]; [20]", "value": 56, "unit": "µM"}, {"measurement": "Glufosinate‐ammonium % Inhibition at saturation 10 000 μM", "setting": "[7]; 10 000 μM", "value": 6.5, "unit": "%"}, {"measurement": "IC50", "setting": "[7]; [20]", "value": "> 10000", "unit": "µM"}, {"measurement": "Glufosinate‐ammonium % Inhibition at saturation 10 000 μM", "setting": "[8]; 10 000 μM", "value": 100, "unit": "%"}, {"measurement": "Resistance index (RI)", "setting": "[8]; IC50 variant / IC50 WT", "value": 1}, {"measurement": "IC50", "setting": "[8]; Table 2 panel", "value": 22.5, "unit": "µM"}, {"measurement": "IC50", "setting": "[8]; Table 3 panel", "value": 21.7, "unit": "µM"}, {"measurement": "Resistance index (RI)", "setting": "[9]; IC50 variant / IC50 WT", "value": 186.5}, {"measurement": "IC50", "setting": "[9]; [20]", "value": 4050, "unit": "µM"}, {"measurement": "Resistance index (RI)", "setting": "[10]; IC50 variant / IC50 WT", "value": 0.1}, {"measurement": "IC50", "setting": "[10]; [20]", "value": 1.3, "unit": "µM"}, {"measurement": "Glufosinate‐ammonium % Inhibition at saturation 10 000 μM", "setting": "[11]; 10 000 μM", "value": 29, "unit": "%"}, {"measurement": "IC50", "setting": "[11]; [20]", "value": "> 10000", "unit": "µM"}, {"measurement": "Glufosinate‐ammonium % Inhibition at saturation 10 000 μM", "setting": "[12]; 10 000 μM", "value": 0.3, "unit": "%"}, {"measurement": "IC50", "setting": "[12]; [20]", "value": "> 10000", "unit": "µM"}, {"measurement": "inhibition by GFA", "setting": "[13]", "value": "completely insensitive; also recorded: no measurable inhibition; also recorded: no detectable inhibition"}, {"measurement": "Resistance index (RI)", "setting": "[14]; IC50 variant / IC50 WT", "value": 2.5}, {"measurement": "IC50", "setting": "[14]; [20]", "value": 54, "unit": "µM"}, {"measurement": "tolerance to GFA (visual injury)", "setting": "[15]", "value": "failed to confer tolerance; also recorded: sensitive phenotype"}, {"measurement": "Glufosinate‐ammonium % Inhibition at saturation 10 000 μM", "setting": "[16]; 10 000 μM", "value": 0, "unit": "%"}, {"measurement": "IC50", "setting": "[16]; [20]", "value": "> 10000", "unit": "µM"}, {"measurement": "Glufosinate‐ammonium % Inhibition at saturation 10 000 μM", "setting": "[17]; 10 000 μM", "value": 1.9, "unit": "%"}, {"measurement": "IC50", "setting": "[17]; [20]", "value": "> 10000", "unit": "µM"}, {"measurement": "Resistance index (RI)", "setting": "[18]; IC50 variant / IC50 WT", "value": 8.4}, {"measurement": "IC50", "setting": "[18]; [20]", "value": 182, "unit": "µM"}, {"measurement": "Resistance index (RI)", "setting": "[19]; IC50 variant / IC50 WT", "value": 1.5}, {"measurement": "IC50", "setting": "[19]; [20]", "value": 33, "unit": "µM"}]}]}
